Assay results reported in patent US20070015770A1 (priority 2003, published 2007).
Like-named read-outs stand apart in the source and are kept apart here.

Test system: Pyricularia oryzae
Type: in vivo
Conditions: individual active compound, rice seedlings Tai-Nong 67, protective spray, evaluated 6 days after inoculation

Row | SMILES | Efficacy in % of the untreated control (1 ppm in the spray liquor) [%] | Efficacy in % of the untreated control (4 ppm in the spray liquor) [%]
1 | CC1CCN(c2c(-c3c(F)cc(F)cc3F)c(Cl)nc3ncnn23)CC1 [I, 5-chloro-7-(4-methylpiperidin-1-yl)-6-(2,4,6-trifluorophenyl)-[1,2,4]triazolo[1,5-a]pyrimidine] | 16 | 28
2 | COCC(=O)N(c1c(C)cccc1C)[C@H](C)C(=O)OC [II (metalaxyl-M), methyl N-(methoxyacetyl)-N-(2,6-xylyl)-D-alaninate] |  | 0
3 | CC1CCN(c2c(-c3c(F)cccc3Cl)c(Cl)nc3ncnn23)CC1 [comparative compound A] | 0 | 4
4 | C[C@H](Nc1c(-c2c(F)cc(F)cc2F)c(Cl)nc2ncnn12)C(F)(F)F [comparative compound B] | 4 | 40
